Measured values reported in patent publication US20070117743A1, “New antitumoral compounds” (priority 2003, published 2007).
Where a SMILES comes first, the peptide text is derived from it. Bridges are numbered along the chain shown (N, C = ends). [ ]: non-standard residue; d: D form. The star is where a group is joined. d(aIle) = CC[C@H](C)[C@@H](N)C(=O)O; d(aThr) = C[C@@H](O)[C@@H](N)C(=O)O; Hexanoyl(5-Me) = CC(C)CCCC(=O)*; Orn = NCCC[C@H](N)C(=O)O; Dhb = C/C=C(\N)C(=O)O

Tests used:
Assay type in all cases: cell-based, human
K-562 = assay: SRB colorimetric assay of cell growth and viability, K-562; settings: 48 hours exposure; for CC50: read-out: LC50 K-562
IGROV-ET = assay: SRB colorimetric assay of cell growth and viability, IGROV-ET; settings: 48 hours exposure; for CC50: read-out: LC50 IGROV-ET
DU-145 = assay: SRB colorimetric assay of cell growth and viability, DU-145; settings: 48 hours exposure
HT-29 = assay: SRB colorimetric assay of cell growth and viability, HT-29; settings: 48 hours exposure; for GI50: read-out: GI50 HT-29; for CC50: read-out: LC50 HT-29
IGROV-1 = assay: SRB colorimetric assay of cell growth and viability, IGROV-1; settings: 48 hours exposure
HeLa = assay: SRB colorimetric assay of cell growth and viability, HeLa; settings: 48 hours exposure; for CC50: read-out: LC50 HELA
LoVo = assay: SRB colorimetric assay of cell growth and viability, LoVo; settings: 48 hours exposure; for CC50: read-out: LC50 LOVO
SK-BR-3 = assay: SRB colorimetric assay of cell growth and viability, SK-BR-3; settings: 48 hours exposure
LNCaP = assay: SRB colorimetric assay of cell growth and viability, LNCaP; settings: 48 hours exposure; for GI50: read-out: GI50 LN-caP; for CC50: read-out: LC50 LN-caP
HeLa-APL = assay: SRB colorimetric assay of cell growth and viability, HeLa-APL; settings: 48 hours exposure; for CC50: read-out: LC50 HELA-APL
A-549 = assay: SRB colorimetric assay of cell growth and viability, A-549; settings: 48 hours exposure; for GI50: read-out: GI50 A-549; for CC50: read-out: LC50 A-549
PANC-1 = assay: SRB colorimetric assay of cell growth and viability, PANC-1; settings: 48 hours exposure; for CC50: read-out: LC50 PANC-1
SK-MEL-28 = assay: SRB colorimetric assay of cell growth and viability, SK-MEL-28; settings: 48 hours exposure; for CC50: read-out: LC50 MEL-28

Structure (SMILES) | GI50 (K-562) [µM] | TGI K-562 (K-562) [Molar] | CC50 (K-562) [µM] | GI50 (IGROV-ET) [µM] | TGI IGROV-ET (IGROV-ET) [Molar] | CC50 (IGROV-ET) [µM] | GI50 (DU-145) [µM] | LC50 (concentration causing 50% net cell kill) (DU-145) [µM] | TGI DU-145 (DU-145) [Molar] | TGI HT-29 (HT-29) [Molar] | GI50 (HT-29) [µM] | CC50 (HT-29) [µM] | GI50 (IGROV-1) [µM] | LC50 (concentration causing 50% net cell killing) (IGROV-1) [µM] | TGI IGROV (IGROV-1) [Molar] | GI50 (HeLa) [µM] | TGI HELA (HeLa) [Molar] | CC50 (HeLa) [µM] | GI50 (LoVo) [µM] | TGI LOVO (LoVo) [Molar] | further results
C/C=C1\NC(=O)[C@H](Cc2ccccc2)NC(=O)[C@@H](C(C)C)NC(=O)[C@@H]([C@@H](C)CC)NC(=O)[C@H](NC(=O)[C@H](NC(=O)[C@H](CCCN)NC(=O)[C@H]2CCCN2C(=O)[C@H](NC(=O)[C@@H]2CCCN2C(=O)[C@@H](NC(=O)[C@H](NC(=O)CCCC(C)C)C(C)C)[C@@H](C)O)C(C)C)[C@@H](C)CC)[C@@H](C)OC(=O)[C@H](C(C)C)NC1=O [Compound 47, [Pro^11]-KF] ({Hexanoyl(5-Me)}-[dV]TP[dV][dP][Orn][d(aIle)][d(aThr)][d(aIle)][dV]F[Dhb]V; ester 8-C) | 6.78 | 6.78E−06 | 6.78 | 6.78 | 6.78E−06 | 6.78 | 6.78 | 6.78 | 6.78E−06 | 6.78E−06 | 6.78 | 6.78 | 6.78 | 6.78 | 6.78E−06 | 6.78 | 6.78E−06 | 6.78 | 5.85 | 6.78E−06 | CC50 (LoVo): 6.78 µM; GI50 (SK-BR-3): 6.78 µM; LC50 (SK-BR-3): 6.78 µM; TGI SK-BR-3 (SK-BR-3): 6.78E−06 Molar; TGI LN-caP (LNCaP): 6.78E−06 Molar; GI50 (LNCaP): 3.45 µM; CC50 (LNCaP): 6.78 µM; GI50 (HeLa-APL): 6.78 µM; TGI HELA-APL (HeLa-APL): 6.78E−06 Molar; CC50 (HeLa-APL): 6.78 µM; TGI A-549 (A-549): 6.78E−06 Molar; GI50 (A-549): 6.78 µM; CC50 (A-549): 6.78 µM; GI50 (PANC-1): 5.63 µM; TGI PANC-1 (PANC-1): 6.78E−06 Molar; CC50 (PANC-1): 6.78 µM; GI50 (SK-MEL-28): 6.78 µM; TGI MEL-28 (SK-MEL-28): 6.78E−06 Molar; CC50 (SK-MEL-28): 6.78 µM
C/C=C1\NC(=O)[C@H](Cc2ccccc2)NC(=O)[C@@H](C(C)C)NC(=O)[C@@H]([C@@H](C)CC)NC(=O)[C@H](NC(=O)[C@H](NC(=O)[C@H](CCCN)NC(=O)[C@H]2CCCN2C(=O)[C@H](NC(=O)[C@H](C)NC(=O)[C@@H](NC(=O)[C@H](NC(=O)CCCC(C)C)C(C)C)[C@@H](C)O)C(C)C)[C@@H](C)CC)[C@@H](C)OC(=O)[C@H](C(C)C)NC1=O [Compound 44, [Ala^11]-KF] ({Hexanoyl(5-Me)}-[dV]TA[dV][dP][Orn][d(aIle)][d(aThr)][d(aIle)][dV]F[Dhb]V; ester 8-C) | 3.06 | 6.90E−06 | 6.9 | 1.5 | 2.95E−06 | 5.77 | 3.03 | 6.9 | 6.90E−06 | 2.61E−06 | 1.34 | 5.08 | 1.43 | 5.72 | 2.86E−06 | 2.85 | 6.90E−06 | 6.9 | 0.973 | 2.03E−06 | CC50 (LoVo): 4.23 µM; GI50 (SK-BR-3): 1.19 µM; LC50 (SK-BR-3): 5.3 µM; TGI SK-BR-3 (SK-BR-3): 2.52E−06 Molar; GI50 (LNCaP): 2.78 µM; CC50 (LNCaP): 6.9 µM; GI50 (HeLa-APL): 3.18 µM; TGI HELA-APL (HeLa-APL): 6.90E−06 Molar; CC50 (HeLa-APL): 6.9 µM; TGI A-549 (A-549): 6.90E−06 Molar; GI50 (A-549): 2.69 µM; CC50 (A-549): 6.9 µM; GI50 (PANC-1): 6.9 µM; TGI PANC-1 (PANC-1): 6.90E−06 Molar; CC50 (PANC-1): 6.9 µM; GI50 (SK-MEL-28): 3.69 µM; TGI MEL-28 (SK-MEL-28): 6.90E−06 Molar; CC50 (SK-MEL-28): 6.9 µM
C/C=C1\NC(=O)[C@H](Cc2ccccc2)NC(=O)[C@@H](C(C)C)NC(=O)[C@@H]([C@@H](C)CC)NC(=O)[C@H](NC(=O)[C@H](NC(=O)[C@H](CCCN)NC(=O)[C@H]2CCCN2C(=O)[C@H](NC(=O)[C@H](CCC(N)=O)NC(=O)[C@@H](NC(=O)[C@H](NC(=O)CCCC(C)C)C(C)C)[C@@H](C)O)C(C)C)[C@@H](C)CC)[C@@H](C)OC(=O)[C@H](C(C)C)NC1=O [Compound 48, [Gln^11]-KF] ({Hexanoyl(5-Me)}-[dV]TQ[dV][dP][Orn][d(aIle)][d(aThr)][d(aIle)][dV]F[Dhb]V; ester 8-C) | 6.64 | 6.64E−06 | 6.64 | 6.64 | 6.64E−06 | 6.64 | 6.64 | 6.64 | 6.64E−06 | 6.64E−06 | 6.64 | 6.64 | 6.64 | 6.64 | 6.64E−06 | 6.64 | 6.64E−06 | 6.64 | 5.17 | 6.64E−06 | CC50 (LoVo): 6.64 µM; GI50 (SK-BR-3): 6.64 µM; LC50 (SK-BR-3): 6.64 µM; TGI SK-BR-3 (SK-BR-3): 6.64E−06 Molar; TGI LN-caP (LNCaP): 6.64E−06 Molar; GI50 (LNCaP): 3.1 µM; CC50 (LNCaP): 6.64 µM; GI50 (HeLa-APL): 6.64 µM; TGI HELA-APL (HeLa-APL): 6.64E−06 Molar; CC50 (HeLa-APL): 6.64 µM; TGI A-549 (A-549): 6.64E−06 Molar; GI50 (A-549): 5.82 µM; CC50 (A-549): 6.64 µM; GI50 (PANC-1): 5.1 µM; TGI PANC-1 (PANC-1): 6.64E−06 Molar; CC50 (PANC-1): 6.64 µM; GI50 (SK-MEL-28): 6.64 µM; TGI MEL-28 (SK-MEL-28): 6.64E−06 Molar; CC50 (SK-MEL-28): 6.64 µM
C/C=C1\NC(=O)[C@H](Cc2ccccc2)NC(=O)[C@@H](C(C)C)NC(=O)[C@@H]([C@@H](C)CC)NC(=O)[C@H](NC(=O)[C@H](NC(=O)[C@H](CCCN)NC(=O)[C@H]2CCCN2C(=O)[C@H](NC(=O)CNC(=O)[C@@H](NC(=O)[C@H](NC(=O)CCCC(C)C)C(C)C)[C@@H](C)O)C(C)C)[C@@H](C)CC)[C@@H](C)OC(=O)[C@H](C(C)C)NC1=O [Compound 42, [Gly^11]-KF] ({Hexanoyl(5-Me)}-[dV]TG[dV][dP][Orn][d(aIle)][d(aThr)][d(aIle)][dV]F[Dhb]V; ester 8-C) | 1.82 | 4.37E−06 | 6.96 | 6.96 | 6.96E−06 | 6.96 | 6.96 | 6.96 | 6.96E−06 | 6.96E−06 | 6.96 | 6.96 | 4.61 | 6.96 | 6.96E−06 | 6.96 | 6.96E−06 | 6.96 | 3.87 | 6.96E−06 | CC50 (LoVo): 6.96 µM; GI50 (SK-BR-3): 6.96 µM; LC50 (SK-BR-3): 6.96 µM; TGI SK-BR-3 (SK-BR-3): 6.96E−06 Molar; TGI LN-caP (LNCaP): 6.96E−06 Molar; GI50 (LNCaP): 3.03 µM; CC50 (LNCaP): 6.96 µM; GI50 (HeLa-APL): 6.96 µM; TGI HELA-APL (HeLa-APL): 6.96E−06 Molar; CC50 (HeLa-APL): 6.96 µM; TGI A-549 (A-549): 6.96E−06 Molar; GI50 (A-549): 6.96 µM; CC50 (A-549): 6.96 µM; GI50 (PANC-1): 5.08 µM; TGI PANC-1 (PANC-1): 6.96E−06 Molar; CC50 (PANC-1): 6.96 µM; GI50 (SK-MEL-28): 6.96 µM; TGI MEL-28 (SK-MEL-28): 6.96E−06 Molar; CC50 (SK-MEL-28): 6.96 µM
C/C=C1\NC(=O)[C@H](Cc2ccccc2)NC(=O)[C@@H](C(C)C)NC(=O)[C@@H]([C@@H](C)CC)NC(=O)[C@H](NC(=O)[C@H](NC(=O)[C@H](CCCN)NC(=O)[C@H]2CCCN2C(=O)[C@H](NC(=O)[C@@H](NC(=O)[C@@H](NC(=O)[C@H](NC(=O)CCCNC(=N)N)C(C)C)[C@@H](C)O)C(C)C)C(C)C)[C@@H](C)CC)[C@@H](C)OC(=O)[C@H](C(C)C)NC1=O [Compound 29, [4-GuBut^14]-KF] | 6.7 | 6.70E−06 | 6.7 | 6.7 | 6.70E−06 | 6.7 | 6.7 | 6.7 | 6.70E−06 | 6.70E−06 | 6.7 | 6.7 | 6.7 | 6.7 | 6.70E−06 | 6.7 | 6.70E−06 | 6.7 | 5.45 | 6.70E−06 | CC50 (LoVo): 6.7 µM; GI50 (SK-BR-3): 6.7 µM; LC50 (SK-BR-3): 6.7 µM; TGI SK-BR-3 (SK-BR-3): 6.70E−06 Molar; TGI LN-caP (LNCaP): 6.70E−06 Molar; GI50 (LNCaP): 3.91 µM; CC50 (LNCaP): 6.7 µM; GI50 (HeLa-APL): 6.7 µM; TGI HELA-APL (HeLa-APL): 6.70E−06 Molar; CC50 (HeLa-APL): 6.7 µM; TGI A-549 (A-549): 6.70E−06 Molar; GI50 (A-549): 6.7 µM; CC50 (A-549): 6.7 µM; GI50 (PANC-1): 6.7 µM; TGI PANC-1 (PANC-1): 6.70E−06 Molar; CC50 (PANC-1): 6.7 µM; GI50 (SK-MEL-28): 6.7 µM; TGI MEL-28 (SK-MEL-28): 6.70E−06 Molar; CC50 (SK-MEL-28): 6.7 µM
